Paper PMC4170656 (Developmental cell, 2014)
Numbering of substitutions follows the chain as printed.

Tests used:
Assay type in all cases: binding
[1] = target: T1, His:ARD (ankyrin repeat domain of AKR2A) (Arabidopsis thaliana, UniProt Q9SAR5, L315A); experiment: SPR sensorgrams, lipid vesicles on L1 chip; settings: POPG/POPC (50:50) vesicles; pH 7.4, 0.16 M NaCl, 23°C; L3 site
T1 sequence (Q9SAR5 211-342 L315A): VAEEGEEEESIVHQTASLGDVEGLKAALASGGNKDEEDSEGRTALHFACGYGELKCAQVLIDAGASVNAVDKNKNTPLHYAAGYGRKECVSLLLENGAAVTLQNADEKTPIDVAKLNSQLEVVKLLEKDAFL

[2] = target: T2, His:ARD (ankyrin repeat domain of AKR2A) (Arabidopsis thaliana, UniProt Q9SAR5, N314A); experiment: SPR sensorgrams, lipid vesicles on L1 chip; settings: POPG/POPC (50:50) vesicles; pH 7.4, 0.16 M NaCl, 23°C; L3 site
T2 sequence (Q9SAR5 211-342 N314A): T1 sequence (Q9SAR5 211-342 L315A) with N104A, A105L

[3] = target: T3, His:AKR2A (full-length AKR2A) (Arabidopsis thaliana, UniProt Q9SAR5); experiment: SPR, lipid vesicles on L1 chip; settings: POPG/POPC/MGDG [50:(50−x):x] vesicles; pH 7.4, 0.16 M NaCl, 23°C
T3 sequence (Q9SAR5 1-342): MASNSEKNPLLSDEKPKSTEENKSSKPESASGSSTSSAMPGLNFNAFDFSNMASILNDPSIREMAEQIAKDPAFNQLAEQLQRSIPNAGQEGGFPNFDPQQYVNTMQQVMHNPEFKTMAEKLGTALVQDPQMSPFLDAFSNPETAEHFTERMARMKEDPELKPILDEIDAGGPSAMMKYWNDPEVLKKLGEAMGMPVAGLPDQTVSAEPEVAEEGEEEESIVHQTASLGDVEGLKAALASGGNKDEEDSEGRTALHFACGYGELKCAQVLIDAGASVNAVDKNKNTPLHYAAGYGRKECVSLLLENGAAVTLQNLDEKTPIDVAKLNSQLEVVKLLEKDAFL

[4] = target: T4, His:ARD (ankyrin repeat domain of AKR2A) (Arabidopsis thaliana, UniProt Q9SAR5, H223A); experiment: SPR sensorgrams, lipid vesicles on L1 chip; settings: POPG/POPC (50:50) vesicles; pH 7.4, 0.16 M NaCl, 23°C; L1 site
T4 sequence (Q9SAR5 211-342 H223A): T1 sequence (Q9SAR5 211-342 L315A) with H13A, A105L

[5] = target: T5, His:ARD (ankyrin repeat domain of AKR2A) (Arabidopsis thaliana, UniProt Q9SAR5, Y294A); experiment: SPR sensorgrams, lipid vesicles on L1 chip; settings: POPG/POPC (50:50) vesicles; pH 7.4, 0.16 M NaCl, 23°C; L2 site
T5 sequence (Q9SAR5 211-342 Y294A): T1 sequence (Q9SAR5 211-342 L315A) with Y84A, A105L

[6] = target: T6, His:ARD (ankyrin repeat domain of AKR2A) (Arabidopsis thaliana, UniProt Q9SAR5, E246A); experiment: SPR sensorgrams, lipid vesicles on L1 chip; settings: POPG/POPC (50:50) vesicles; pH 7.4, 0.16 M NaCl, 23°C; L1 site
T6 sequence (Q9SAR5 211-342 E246A): T1 sequence (Q9SAR5 211-342 L315A) with E36A, A105L

[7] = target: T7, His:ARD (ankyrin repeat domain of AKR2A) (Arabidopsis thaliana, UniProt Q9SAR5, R296A); experiment: SPR sensorgrams, lipid vesicles on L1 chip; settings: POPG/POPC (50:50) vesicles; pH 7.4, 0.16 M NaCl, 23°C; L2 site
T7 sequence (Q9SAR5 211-342 R296A): T1 sequence (Q9SAR5 211-342 L315A) with R86A, A105L

Compound: CCCCCCCC/C=C\CCCCCCCC(=O)O[C@H](COC(=O)CCCCCCCCCCCCCCC)COP(=O)(O)OCC(O)CO (stereo partly shown) [POPG]
- SPR sensorgrams, lipid vesicles on L1 chip [1]: the L3 site mutants (N314A and L315A) showed only modestly reduced binding
- SPR sensorgrams, lipid vesicles on L1 chip [2]: the L3 site mutants (N314A and L315A) showed only modestly reduced binding
- SPR, lipid vesicles on L1 chip [3]: MGDG-dependent vesicle binding of full-length (FL) AKR2A (red) and ARD (blue)
- SPR sensorgrams, lipid vesicles on L1 chip [4]: The L1 site mutants H223A and E246A also had a significantly lower binding affinity
- SPR sensorgrams, lipid vesicles on L1 chip [5]: the L2 site mutants (Y294A and R296A) showed significantly lower binding than WT
- SPR sensorgrams, lipid vesicles on L1 chip [6]: The L1 site mutants H223A and E246A also had a significantly lower binding affinity
- SPR sensorgrams, lipid vesicles on L1 chip [7]: the L2 site mutants (Y294A and R296A) showed significantly lower binding than WT
